In the kinase profiling compilation of Christmann-Franck et al. (2016):

Tests used:
Assay in all cases: KINOMEscan competition binding
ERBB4 (human) = ERBB4 (human) (UniProt Q15303)
MAP3K12 (human) = MAP3K12 (human) (UniProt Q12852)
MYLK3 (human) = MYLK3 (human) (UniProt Q32MK0)
Chain of MYLK3 (human) (Q32MK0 whole entry, looked up): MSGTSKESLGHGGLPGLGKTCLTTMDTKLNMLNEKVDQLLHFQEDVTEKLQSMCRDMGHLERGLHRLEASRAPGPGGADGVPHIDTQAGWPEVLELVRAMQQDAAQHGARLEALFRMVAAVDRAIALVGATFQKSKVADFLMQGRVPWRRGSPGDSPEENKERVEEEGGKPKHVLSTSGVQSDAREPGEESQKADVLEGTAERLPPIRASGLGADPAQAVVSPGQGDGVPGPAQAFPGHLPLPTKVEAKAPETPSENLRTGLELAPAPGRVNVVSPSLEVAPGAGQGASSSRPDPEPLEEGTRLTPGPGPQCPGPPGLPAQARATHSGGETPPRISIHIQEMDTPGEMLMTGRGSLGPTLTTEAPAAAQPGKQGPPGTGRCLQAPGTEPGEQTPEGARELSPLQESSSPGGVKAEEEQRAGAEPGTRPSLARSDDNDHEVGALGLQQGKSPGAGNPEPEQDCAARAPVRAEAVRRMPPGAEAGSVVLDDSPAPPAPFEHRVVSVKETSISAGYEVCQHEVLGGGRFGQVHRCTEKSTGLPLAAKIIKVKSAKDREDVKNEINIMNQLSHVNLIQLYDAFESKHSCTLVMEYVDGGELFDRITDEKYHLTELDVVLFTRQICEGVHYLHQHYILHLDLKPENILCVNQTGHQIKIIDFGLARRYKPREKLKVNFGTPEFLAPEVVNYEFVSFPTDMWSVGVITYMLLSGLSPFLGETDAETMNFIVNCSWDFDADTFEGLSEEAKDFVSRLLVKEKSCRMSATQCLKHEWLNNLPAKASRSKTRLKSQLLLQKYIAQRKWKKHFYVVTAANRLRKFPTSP

Chain of ERBB4 (human) (Q15303 whole entry, looked up): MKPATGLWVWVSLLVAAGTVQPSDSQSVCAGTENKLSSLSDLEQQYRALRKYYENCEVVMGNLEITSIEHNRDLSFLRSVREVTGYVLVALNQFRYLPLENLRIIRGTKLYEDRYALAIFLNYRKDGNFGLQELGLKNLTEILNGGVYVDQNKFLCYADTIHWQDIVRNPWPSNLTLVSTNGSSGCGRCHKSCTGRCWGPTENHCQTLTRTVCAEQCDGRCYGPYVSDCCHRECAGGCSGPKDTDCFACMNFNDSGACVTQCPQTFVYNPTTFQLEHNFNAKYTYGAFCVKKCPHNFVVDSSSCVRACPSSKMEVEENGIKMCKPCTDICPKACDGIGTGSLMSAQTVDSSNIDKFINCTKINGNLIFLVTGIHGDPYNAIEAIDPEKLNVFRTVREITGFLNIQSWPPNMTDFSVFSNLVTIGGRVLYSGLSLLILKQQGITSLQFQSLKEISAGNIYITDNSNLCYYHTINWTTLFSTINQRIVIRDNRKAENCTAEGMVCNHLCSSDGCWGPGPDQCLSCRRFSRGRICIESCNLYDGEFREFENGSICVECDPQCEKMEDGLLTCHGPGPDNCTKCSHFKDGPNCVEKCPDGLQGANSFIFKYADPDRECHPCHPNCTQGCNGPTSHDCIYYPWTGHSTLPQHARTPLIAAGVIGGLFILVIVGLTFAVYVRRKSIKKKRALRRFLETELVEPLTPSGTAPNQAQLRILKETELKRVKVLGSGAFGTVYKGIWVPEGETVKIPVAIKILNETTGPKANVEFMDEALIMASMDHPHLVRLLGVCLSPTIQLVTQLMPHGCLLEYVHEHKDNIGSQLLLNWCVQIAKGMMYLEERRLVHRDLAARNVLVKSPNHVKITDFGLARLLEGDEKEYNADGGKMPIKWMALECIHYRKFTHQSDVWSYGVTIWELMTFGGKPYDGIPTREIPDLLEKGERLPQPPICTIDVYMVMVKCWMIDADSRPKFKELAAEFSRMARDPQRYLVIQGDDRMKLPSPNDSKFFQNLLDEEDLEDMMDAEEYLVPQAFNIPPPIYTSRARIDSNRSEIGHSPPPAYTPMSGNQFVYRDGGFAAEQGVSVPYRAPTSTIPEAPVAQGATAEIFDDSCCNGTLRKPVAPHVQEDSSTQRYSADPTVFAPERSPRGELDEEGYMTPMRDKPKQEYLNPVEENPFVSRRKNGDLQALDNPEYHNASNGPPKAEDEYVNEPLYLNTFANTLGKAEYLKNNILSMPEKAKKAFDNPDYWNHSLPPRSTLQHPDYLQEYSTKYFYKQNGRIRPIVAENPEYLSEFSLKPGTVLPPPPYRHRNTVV
Chain of MAP3K12 (human) (Q12852 whole entry, looked up): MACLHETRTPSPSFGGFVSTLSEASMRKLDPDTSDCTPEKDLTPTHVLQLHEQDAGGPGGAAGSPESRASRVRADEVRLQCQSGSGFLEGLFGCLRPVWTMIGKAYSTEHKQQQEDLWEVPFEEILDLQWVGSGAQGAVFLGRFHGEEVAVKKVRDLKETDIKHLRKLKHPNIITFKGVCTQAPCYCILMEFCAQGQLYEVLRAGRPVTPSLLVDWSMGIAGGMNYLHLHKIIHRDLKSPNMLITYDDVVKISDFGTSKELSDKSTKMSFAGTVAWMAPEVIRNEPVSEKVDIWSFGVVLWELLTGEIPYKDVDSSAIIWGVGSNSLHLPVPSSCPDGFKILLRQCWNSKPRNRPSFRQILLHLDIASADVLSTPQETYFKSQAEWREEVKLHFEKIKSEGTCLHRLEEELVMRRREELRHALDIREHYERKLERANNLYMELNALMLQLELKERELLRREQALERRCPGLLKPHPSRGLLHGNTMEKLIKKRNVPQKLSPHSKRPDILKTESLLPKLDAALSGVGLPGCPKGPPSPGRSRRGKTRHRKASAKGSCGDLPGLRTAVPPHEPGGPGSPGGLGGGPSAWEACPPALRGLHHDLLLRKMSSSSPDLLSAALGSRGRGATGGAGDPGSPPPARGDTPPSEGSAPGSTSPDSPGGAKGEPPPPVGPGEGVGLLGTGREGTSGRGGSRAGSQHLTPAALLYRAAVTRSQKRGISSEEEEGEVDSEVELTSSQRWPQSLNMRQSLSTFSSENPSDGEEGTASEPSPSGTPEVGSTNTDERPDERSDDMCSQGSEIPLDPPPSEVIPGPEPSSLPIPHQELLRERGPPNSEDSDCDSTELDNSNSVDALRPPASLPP

SMILES | Kd (ERBB4 (human)) [µM] | Kd (MAP3K12 (human)) [µM] | Kd (MYLK3 (human)) [µM]
NC(=O)c1ccc(-c2nc(-c3ccccn3)c(-c3ccc4c(c3)OCO4)[nH]2)cc1 | > 10 | > 10 | > 10
Nc1nc(Nc2ccc(S(N)(=O)=O)cc2)nn1C(=O)c1c(F)cccc1F | > 10 |  | > 10
COCC(=O)NC/C=C/c1ccc2ncnc(Nc3ccc(Oc4ccc(C)nc4)c(C)c3)c2c1 |  | > 10 | > 10

More lines, now with the values ahead:

Kd (ERBB4 (human)) [µM] | Kd (MAP3K12 (human)) [µM] | Kd (MYLK3 (human)) [µM] | SMILES
> 10 | > 10 | > 10 | Oc1ccc(-c2nc(-c3ccc(F)cc3)c(-c3ccncc3)[nH]2)cc1
 |  | > 10 | CCOc1cc2ncc(C#N)c(Nc3ccc(F)c(Cl)c3)c2cc1NC(=O)/C=C/CN(C)C
